From paper PMC11992225, “Antibacterial compounds against non-growing and intracellular bacteria” (npj Antimicrobials and Resistance, 2025)
In brackets after ≈: the same amount, converted by molar mass. Like-named read-outs stand apart in the source and are kept apart here.

Tests used:
[1] = test system: S. aureus DSM2569; test: MIC, standard microdilution assay, growing S. aureus; assay type: cell-based, Staphylococcus aureus; settings: S. aureus; for MIC: CA-MHB pH 7.4, read-out: MIC (μM) CA-MHB
Summary of the method: (§1)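 Broth microdilution was used throughout. UPEC, P. aeruginosa and S. aureus were tested in CA-MHB buffered with 40 mM HEPES (pH 7.4); UPEC was additionally tested in LPM with 30 mM MES (pH 5.5). S. flexneri was grown in TSB. All determinations were run in triplicate.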

[2] = test system: S. flexneri 5a M90T; test: MIC in tryptic soy broth, S. flexneri; assay type: cell-based, Shigella flexneri; settings: for MIC (μM) TSB: S. flexneri, extracellular bacteria in TSB; for MIC: Shigella flexneri, 5AM90T, read-out: MIC (μM) TSB
Summary of the method: as §1

[3] = test system: intracellular S. flexneri 5a M90T in TC7 cells; test: microbe, parasite or virus in culture; assay type: cell-based, Shigella flexneri
[4] = test system: non-growing UPEC CFT073; test: Dilution-regrowth assay (screen, hit validation, dose-response) on stationary-phase UPEC; assay type: cell-based, Escherichia coli; settings: for OD600 at 6hr, Mean: after dilution into drug-free medium; for Regrowth, OD600 at 6h or 8h after dilution into drug-free medium: average
Summary of the method: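 Regrowth (OD600 after 6 h, 37 °C) of diluted non-growing CFT073, following 24 h compound treatment of 24 h stationary cultures, defines activity relative to untreated control. Screen at 20 µM, validation at 20, 10, 5 µM (duplicates), dose–response in three biological replicates fitted by five-parameter logistic.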

[5] = test system: E. coli CFT073 (UPEC); test: MIC, standard microdilution assay, growing UPEC; assay type: cell-based, Escherichia coli; settings: E. coli
Summary of the method: as §1

[6] = test system: P. aeruginosa DSM1117; test: MIC, standard microdilution assay, growing P. aeruginosa; assay type: cell-based, Pseudomonas aeruginosa; settings: P. aeruginosa
Summary of the method: as §1

[7] = E. coli, LPM pH 5.5, regrowth delay of non-growing bacteria, 24 h treatment, OD600 6 h after 2500-fold dilution, read-out: EC50
[8] = E. coli, pH 7.4, regrowth delay of non-growing bacteria, 1:4 CA-MHB, 24 h treatment, OD600 6 h after 2500-fold dilution, read-out: EC50
[9] = pH 7.4, CA-MHB, read-out: MIC (μM) CA-MHB
[10] = CA-MHB pH 7.4, read-out: MIC (μM) CA-MHB
[11] = TC7 cells infected with GFP-expressing S. flexneri, 14 h treatment
[12] = E. coli in 1:4 CA-MHB (pH 7.4), concentration 1
[13] = E. coli in 1:4 CA-MHB (pH 7.4), concentration 2.5
[14] = E. coli in 1:4 CA-MHB (pH 7.4), concentration 5
[15] = E. coli in 1:4 CA-MHB (pH 7.4), concentration 10
[16] = E. coli in 1:4 CA-MHB (pH 7.4), concentration 30
[17] = E. coli in LPM (pH 5.5), concentration 1
[18] = E. coli in LPM (pH 5.5), concentration 2.5
[19] = E. coli in LPM (pH 5.5), concentration 5
[20] = E. coli in LPM (pH 5.5), concentration 10
[21] = E. coli in LPM (pH 5.5), concentration 30
[22] = Escherichia coli, E. coli, pH 7.4, regrowth delay of non-growing bacteria, 1:4 CA-MHB, 24 h treatment, OD600 6 h after 2500-fold dilution, read-out: EC50
[23] = Escherichia coli, LPM pH 5.5, read-out: MIC
[24] = Escherichia coli, pH 7.4, CA-MHB, read-out: MIC (μM) CA-MHB
[25] = Pseudomonas aeruginosa, DSM1117, 1:4 diluted CA-MHB pH 7.4, read-out: MIC (μM) 1:4 CA-MHB
[26] = Pseudomonas aeruginosa, DSM1117, CA-MHB pH 7.4, read-out: MIC (μM) CA-MHB

Compound | MIC [1] | MIC (μM) TSB [2] | EC50 [4, 7] | EC50 [4, 8] | MIC ([5]; LPM pH 5.5, read-out: MIC) | MIC [5, 9] | MIC [6, 10] | MIC ([1]; Staphylococcus aureus, DSM2569) | MIC [2] | IC50 ([3]; Shigella flexneri, TC7, 14 h) | Fluorescence intensity (RFU), Mean, 2 x MIC [3, 11] | Fluorescence intensity (RFU), Mean, 4 x MIC [3, 11] | Fluorescence intensity (RFU), Mean, 8 x MIC [3, 11] | Fluorescence intensity (RFU), Mean, 16 x MIC [3, 11] | Fluorescence intensity (RFU), Mean, 32 x MIC [3, 11] | Fluorescence intensity (RFU), Mean, MIC [3, 11] | Regrowth, OD600 at 6h or 8h after dilution into drug-free medium [4, 12] | MIC [5, 24] | MIC [6, 25] | MIC [6, 26] | also measured
Bleomycin | 12.5 µM | 0.25 µM | 9.49 µM | 0.987 µM | 0.5 µM | 0.5 µM | >100 µM | – | – | – | – | – | – | – | – | – | – | – | – | – | MIC (μM) 1:4 CA-MHB ([1]; 1:4 diluted CA-MHB pH 7.4): 3.125 µM; inhibition of intracellular Shigella ([3]; TC7 cells): inactive; OD600 at 6hr, Mean ([4]; E. coli in 1:4 CA-MHB (pH 7.4), 0.25 μM): 0.585; OD600 at 6hr, Mean ([4]; E. coli in 1:4 CA-MHB (pH 7.4), 0.5 μM): 0.575; OD600 at 6hr, Mean ([4]; E. coli in 1:4 CA-MHB (pH 7.4), 1 μM): 0.327; OD600 at 6hr, Mean ([4]; E. coli in 1:4 CA-MHB (pH 7.4), 2.5 μM): 0.130; OD600 at 6hr, Mean ([4]; E. coli in 1:4 CA-MHB (pH 7.4), 5 μM): 0.073; OD600 at 6hr, Mean ([4]; E. coli in 1:4 CA-MHB (pH 7.4), 10 μM): 0.067; OD600 at 6hr, Mean ([4]; E. coli in 1:4 CA-MHB (pH 7.4), 30 μM): 0.076; OD600 at 6hr, Mean ([4]; E. coli in LPM (pH 5.5), 0.25 μM): 0.600; OD600 at 6hr, Mean ([4]; E. coli in LPM (pH 5.5), 0.5 μM): 0.583; OD600 at 6hr, Mean ([4]; E. coli in LPM (pH 5.5), 1 μM): 0.569; OD600 at 6hr, Mean ([4]; E. coli in LPM (pH 5.5), 2.5 μM): 0.559; OD600 at 6hr, Mean ([4]; E. coli in LPM (pH 5.5), 5 μM): 0.513; OD600 at 6hr, Mean ([4]; E. coli in LPM (pH 5.5), 10 μM): 0.348; OD600 at 6hr, Mean ([4]; E. coli in LPM (pH 5.5), 30 μM): 0.169
Cc1oc(=O)oc1CN1CCN(c2cc3c(cc2F)c(=O)c(C(=O)O)c2n3C(C)S2)CC1 (stereo not shown) [Prulifloxacin] | – | – | – | – | – | – | – | 4 µM (≈ 1.85 µg/mL) | 0.0312 µM (≈ 0.0144 µg/mL) | 0.147 µM | 8759.64 RFU | 6976.67 RFU | 4116.28 RFU | 3279.44 RFU | 2886.92 RFU | 8494.31 RFU | 0.198 | 0.025 µM (≈ 0.0115 µg/mL) | 1 µM (≈ 0.461 µg/mL) | 1 µM (≈ 0.461 µg/mL) | MIC:IC50 ratio ([3]; S. flexneri MIC in TSB versus intracellular IC50): below 0.5; Regrowth, OD600 at 6h or 8h after dilution into drug-free medium [4, 13]: 0.109; Regrowth, OD600 at 6h or 8h after dilution into drug-free medium [4, 14]: 0.093; Regrowth, OD600 at 6h or 8h after dilution into drug-free medium [4, 15]: 0.094; Regrowth, OD600 at 6h or 8h after dilution into drug-free medium [4, 16]: 0.092; Regrowth, OD600 at 6h or 8h after dilution into drug-free medium [4, 17]: 0.586; Regrowth, OD600 at 6h or 8h after dilution into drug-free medium [4, 18]: 0.570; Regrowth, OD600 at 6h or 8h after dilution into drug-free medium [4, 19]: 0.549; Regrowth, OD600 at 6h or 8h after dilution into drug-free medium [4, 20]: 0.564; Regrowth, OD600 at 6h or 8h after dilution into drug-free medium [4, 21]: 0.416; EC50 [4, 22]: 0.571 µM; MIC [5, 23]: 0.125 µM (≈ 0.0577 µg/mL)
N#Cc1c(N2C[C@@H]3NCCO[C@H]3C2)c(F)cc2c(=O)c(C(=O)O)cn(C3CC3)c12 [Finafloxacin] | 0.5 µM (≈ 0.199 µg/mL) | 0.125 µM (≈ 0.0498 µg/mL) | 13.6 µM | 7.19 µM | 0.007812 µM (≈ 0.00311 µg/mL) | 0.25 µM (≈ 0.0996 µg/mL) | 20 µM (≈ 7.97 µg/mL) | – | – | – | 5014.06 RFU | 3886.5 RFU | 3157.03 RFU | 2833.69 RFU | 2227.19 RFU | 6107.08 RFU | – | – | – | – | IC50 ([3]; intracellular S. flexneri in TC7 cells, GFP fluorescence after 14 h treatment, read-out: IC50): 0.202 µM
CC1Sc2c(C(=O)O)c(=O)c3cc(F)c(N4CCNCC4)cc3n21 (stereo not shown) [Ulifloxacin] | – | – | – | – | – | – | – | 1 µM (≈ 0.349 µg/mL) | 0.0312 µM (≈ 0.0109 µg/mL) | 0.101 µM | 6924.86 RFU | 4362.58 RFU | 3208.03 RFU | 2720.44 RFU | 2065.19 RFU | 8271.31 RFU | – | 0.025 µM (≈ 0.00873 µg/mL) | 0.5 µM (≈ 0.175 µg/mL) | 0.5 µM (≈ 0.175 µg/mL) | EC50 ([4]; Escherichia coli, E. coli, LPM pH 5.5, regrowth delay of non-growing bacteria, 24 h treatment, OD600 6 h after 2500-fold dilution, read-out: EC50): 8.78 µM; EC50 [4, 22]: 0.46 µM; MIC [5, 23]: 0.125 µM (≈ 0.0437 µg/mL)
N[C@@H]1CCCCN(c2c(F)cc3c(=O)c(C(=O)O)cn(C4CC4)c3c2Cl)C1 [Besifloxacin] | – | – | – | – | – | – | – | 0.25 µM (≈ 0.0985 µg/mL) | 0.25 µM (≈ 0.0985 µg/mL) | 0.331 µM | 4305.25 RFU | 3977.14 RFU | 2983.69 RFU | 2325.53 RFU | 1789.06 RFU | 5856.42 RFU | 0.155 | 0.25 µM (≈ 0.0985 µg/mL) | 8 µM (≈ 3.15 µg/mL) | 4 µM (≈ 1.58 µg/mL) | Fluorescence intensity (RFU), Mean, 0.5 x MIC ([3]; TC7 cells infected with GFP-expressing S. flexneri, 14 h treatment, 0.5 x MIC): 8982.33 RFU; Regrowth, OD600 at 6h or 8h after dilution into drug-free medium ([4]; E. coli in 1:4 CA-MHB (pH 7.4), concentration 0.25): 0.548; Regrowth, OD600 at 6h or 8h after dilution into drug-free medium ([4]; E. coli in 1:4 CA-MHB (pH 7.4), concentration 0.5): 0.480; Regrowth, OD600 at 6h or 8h after dilution into drug-free medium [4, 13]: 0.075; Regrowth, OD600 at 6h or 8h after dilution into drug-free medium [4, 14]: 0.073; Regrowth, OD600 at 6h or 8h after dilution into drug-free medium [4, 15]: 0.071; Regrowth, OD600 at 6h or 8h after dilution into drug-free medium [4, 16]: 0.073; Regrowth, OD600 at 6h or 8h after dilution into drug-free medium ([4]; E. coli in LPM (pH 5.5), concentration 0.25): 0.547; Regrowth, OD600 at 6h or 8h after dilution into drug-free medium ([4]; E. coli in LPM (pH 5.5), concentration 0.5): 0.532; Regrowth, OD600 at 6h or 8h after dilution into drug-free medium [4, 17]: 0.550; Regrowth, OD600 at 6h or 8h after dilution into drug-free medium [4, 18]: 0.548; Regrowth, OD600 at 6h or 8h after dilution into drug-free medium [4, 19]: 0.531; Regrowth, OD600 at 6h or 8h after dilution into drug-free medium [4, 20]: 0.531; Regrowth, OD600 at 6h or 8h after dilution into drug-free medium [4, 21]: 0.471; EC50 ([4]; Escherichia coli, pH 7.4): 0.677 µM; increase of MIC in diluted CA-MHB versus CA-MHB [6]: twofold
